{
  "source": "patent US12239643B2",
  "about": "“Therapeutic agent for inflammatory diseases, autoimmune diseases, fibrotic diseases, and cancer diseases” (MEIJI SEIKA PHARMA CO., LTD., priority 2018, dated 2025)",
  "test_system": "PDE4",
  "assay": "Evaluation of PDE4 inhibitory activity, scintillation proximity assay",
  "assay_type": "biochemical",
  "details": "scintillation proximity assay; read-out: PDE4 Inhibitory Activity (Evaluation 1; concentration for the inhibition rate of 50%)",
  "outline": "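IC50 was derived from inhibition curves, referenced to an enzyme-free blank and a DMSO-only control. Compound, PDE4 preparation and tritiated cAMP reacted 120 min at RT in Tris-HCl buffer (pH 7.4) with MgCl2, EGTA and BSA; YSi-SPA beads with ZnSO4 bound product before scintillation counting.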",
  "data": [
    {"smiles": "CC(O)c1cc(-c2nccs2)c2oc(N3CC4CC(C3)N4)nc2c1OC(F)(F)F", "note": "(centres unmarked) [Example 272, 1-(2-(3,6-Diazabicyclo[3.1.1]heptan-3-yl)-7-(thiazol-2-yl)-4-(trifluoromethoxy)benzo[d]oxazol-5-yl)ethan-1-ol]", "values": [
      {"measurement": "IC50", "value": "< 100", "unit": "nM"}
    ]},
    {"smiles": "CC(O)c1cc(-c2nccs2)c2oc(N3CC4CC(C3)N4)nc2c1OC(F)(F)F", "note": "(centres unmarked) [Example 273, 1-(2-(3,6-Diazabicyclo[3.1.1]heptan-3-yl)-7-(thiazol-2-yl)-4-(trifluoromethoxy)benzo[d]oxazol-5-yl)ethan-1-ol]", "values": [
      {"measurement": "IC50", "value": "< 100", "unit": "nM"}
    ]},
    {"smiles": "OC1(c2cc(-c3nccs3)c3oc(N4CC5CCC(C4)N5)nc3c2OC(F)(F)F)CC1", "note": "[Example 274, 1-(2-(3,8-Diazabicyclo[3.2.1]octan-3-yl)-7-(thiazol-2-yl)-4-(trifluoromethoxy)benzo[d]oxazol-5-yl)cyclopropan-1-ol]", "values": [
      {"measurement": "IC50", "value": "< 100", "unit": "nM"}
    ]},
    {"smiles": "OC(c1cc(-c2nccs2)c2oc(N3CC4CCC(C3)N4)nc2c1OC(F)(F)F)C(F)F", "note": "(centres unmarked) [Example 275, 1-(2-(3,8-Diazabicyclo[3.2.1]octan-3-yl)-7-(thiazol-2-yl)-4-(trifluoromethoxy)benzo[d]oxazol-5-yl)-2,2-difluoroethan-1-ol]", "values": [
      {"measurement": "IC50", "value": "< 100", "unit": "nM"}
    ]},
    {"smiles": "OC(c1cc(-c2nccs2)c2oc(N3CC4CCC(C3)N4)nc2c1OC(F)(F)F)C(F)F", "note": "(centres unmarked) [Example 276, 1-(2-(3,8-Diazabicyclo[3.2.1]octan-3-yl)-7-(thiazol-2-yl)-4-(trifluoromethoxy)benzo[d]oxazol-5-yl)-2,2-difluoroethan-1-ol]", "values": [
      {"measurement": "IC50", "value": "< 100", "unit": "nM"}
    ]},
    {"smiles": "OC(COc1ccc(-c2nccs2)c2oc(N3CC4CC(C3)N4)nc12)C(F)(F)F", "note": "(centres unmarked) [Example 277, 3-((2-(3,6-Diazabicyclo[3.1.1]heptan-3-yl)-7-(thiazol-2-yl)benzo[d]oxazol-4-yl)oxy)-1,1,1-trifluoropropan-2-ol]", "values": [
      {"measurement": "IC50", "value": "< 100", "unit": "nM"}
    ]},
    {"smiles": "FC(F)Oc1ccc(-c2nccs2)c2oc(N3CC4CC(C3)N4)nc12", "note": "[Example 278, 2-(3,6-Diazabicyclo[3.1.1]heptan-3-yl)-4-(difluoromethoxy)-7-(thiazol-2-yl)benzo[d]oxazole]", "values": [
      {"measurement": "IC50", "value": "< 100", "unit": "nM"}
    ]},
    {"smiles": "CC(C)(O)COc1ccc(-c2nccs2)c2oc(N3CC4CC(C3)N4)nc12", "note": "[Example 279, 1-((2-(3,6-Diazabicyclo[3.1.1]heptan-3-yl)-7-(thiazol-2-yl)benzo[d]oxazol-4-yl)oxy)-2-methylpropan-2-ol]", "values": [
      {"measurement": "IC50", "value": "< 100", "unit": "nM"}
    ]},
    {"smiles": "CC(C)(O)C(C)(C)OC(c1ccc(-c2nccs2)c2oc(N3CC4CC(C3)N4)nc12)C(F)(F)F", "note": "(centres unmarked) [Example 280, 3-(1-(2-(3,6-Diazabicyclo[3.1.1]heptan-3-yl)-7-(thiazol-2-yl)benzo[d]oxazol-4-yl)-2,2,2-trifluoroethoxy)-2,3-dimethylbutan-2-ol]", "values": [
      {"measurement": "IC50", "value": "< 100", "unit": "nM"}
    ]},
    {"smiles": "COC(C)(C)COC(c1ccc(-c2nccs2)c2oc(N3CC4CC(C3)N4)nc12)C(F)(F)F", "note": "(centres unmarked) [Example 281, 2-(3,6-Diazabicyclo[3.1.1]heptan-3-yl)-7-(thiazol-2-yl)-4-(2,2,2-trifluoro-1-(2-methoxy-2-methylpropoxy)ethyl)benzo[d]oxazole]", "values": [
      {"measurement": "IC50", "value": "< 100", "unit": "nM"}
    ]},
    {"smiles": "COC1(COC(c2ccc(-c3nccs3)c3oc(N4CC5CC(C4)N5)nc23)C(F)(F)F)CC1", "note": "(centres unmarked) [Example 282, 2-(3,6-Diazabicyclo[3.1.1]heptan-3-yl)-7-(thiazol-2-yl)-4-(2,2,2-trifluoro-1-((1-methoxycyclopropyl)methoxy)ethyl)benzo[d]oxazole]", "values": [
      {"measurement": "IC50", "value": "< 100", "unit": "nM"}
    ]},
    {"smiles": "COC1(c2cc(-c3nccs3)c3oc(N4CC5CC(C4)N5)nc3c2OC(F)(F)F)CC1", "note": "[Example 283, 2-(3,6-Diazabicyclo[3.1.1]heptan-3-yl)-5-(1-methoxycyclopropyl)-7-(thiazol-2-yl)-4-(trifluoromethoxy)benzo[d]oxazole]", "values": [
      {"measurement": "IC50", "value": "< 100", "unit": "nM"}
    ]},
    {"smiles": "CC(C)(O)COC(c1ccc(-c2cscn2)c2oc(N3CC4CC(C3)N4)nc12)C(F)(F)F", "note": "(centres unmarked) [Example 284, 1-(1-(2-(3,6-Diazabicyclo[3.1.1]heptan-3-yl)-7-(thiazol-4-yl)benzo[d]oxazol-4-yl)-2,2,2-trifluoroethoxy)-2-methylpropan-2-ol]", "values": [
      {"measurement": "IC50", "value": "< 100", "unit": "nM"}
    ]},
    {"smiles": "OC1(COC(c2ccc(-c3cscn3)c3oc(N4CC5CC(C4)N5)nc23)C(F)(F)F)CC1", "note": "(centres unmarked) [Example 286, 1-((1-(2-(3,6-Diazabicyclo[3.1.1]heptan-3-yl)-7-(thiazol-4-yl)benzo[d]oxazol-4-yl)-2,2,2-trifluoroethoxy)methyl)cyclopropan-1-ol]", "values": [
      {"measurement": "IC50", "value": "< 100", "unit": "nM"}
    ]},
    {"smiles": "COC(C)(C)c1cc(-c2cscn2)c2oc(N3CC4CC(C3)N4)nc2c1OC(F)(F)F", "note": "[Example 287, 2-(3,6-Diazabicyclo[3.1.1]heptan-3-yl)-5-(2-methoxypropan-2-yl)-7-(thiazol-4-yl)-4-(trifluoromethoxy)benzo[d]oxazole]", "values": [
      {"measurement": "IC50", "value": "< 100", "unit": "nM"}
    ]},
    {"smiles": "CC(C)(O)c1cc(-c2cscn2)c2oc(N3CC4CC(C3)N4)nc2c1OC(F)(F)F", "note": "[Example 288, 2-(2-(3,6-Diazabicyclo[3.1.1]heptan-3-yl)-7-(thiazol-4-yl)-4-(trifluoromethoxy)benzo[d]oxazol-5-yl)propan-2-ol]", "values": [
      {"measurement": "IC50", "value": "< 100", "unit": "nM"}
    ]},
    {"smiles": "CC(C)(O)C(F)(F)Oc1ccc(-c2ccccn2)c2oc(N3CC4CC(C3)N4)nc12", "note": "[Example 289, 1-((2-(3,6-Diazabicyclo[3.1.1]heptan-3-yl)-7-(pyridin-2-yl)benzo[d]oxazol-4-yl)oxy)-1,1-difluoro-2-methylpropan-2-ol]", "values": [
      {"measurement": "IC50", "value": "< 100", "unit": "nM"}
    ]},
    {"smiles": "CC(C)(O)C(F)(F)Oc1ccc(-c2ncco2)c2oc(N3CC4CC(C3)N4)nc12", "note": "[Example 290, 1-((2-(3,6-Diazabicyclo[3.1.1]heptan-3-yl)-7-(oxazol-2-yl)benzo[d]oxazol-4-yl)oxy)-1,1-difluoro-2-methylpropan-2-ol]", "values": [
      {"measurement": "IC50", "value": "< 100", "unit": "nM"}
    ]},
    {"smiles": "CC(C)(O)c1cc(-c2cscn2)c2oc(N3CC4CCC(C3)N4)nc2c1OC(F)(F)F", "note": "[Example 291, 2-(2-(3,8-Diazabicyclo[3.2.1]octan-3-yl)-7-(thiazol-4-yl)-4-(trifluoromethoxy)benzo[d]oxazol-5-yl)propan-2-ol]", "values": [
      {"measurement": "IC50", "value": "< 100", "unit": "nM"}
    ]},
    {"smiles": "OC(c1cc(-c2nccs2)c2oc(N3CC4CC(C3)N4)nc2c1OC(F)(F)F)C(F)F", "note": "(centres unmarked) [Example 292, 1-(2-(3,6-Diazabicyclo[3.1.1]heptan-3-yl)-7-(thiazol-2-yl)-4-(trifluoromethoxy)benzo[d]oxazol-5-yl)-2,2-difluoroethan-1-ol]", "values": [
      {"measurement": "IC50", "value": "< 100", "unit": "nM"}
    ]},
    {"smiles": "OC(c1cc(-c2nccs2)c2oc(N3CC4CC(C3)N4)nc2c1OC(F)(F)F)C(F)F", "note": "(centres unmarked) [Example 293, 1-(2-(3,6-Diazabicyclo[3.1.1]heptan-3-yl)-7-(thiazol-2-yl)-4-(trifluoromethoxy)benzo[d]oxazol-5-yl)-2,2-difluoroethan-1-ol]", "values": [
      {"measurement": "IC50", "value": "< 100", "unit": "nM"}
    ]},
    {"smiles": "CC(C)(O)CC(F)(F)Oc1ccc(-c2nccs2)c2oc(N3CC4CC(C3)N4)nc12", "note": "[Example 295, 4-((2-(3,6-Diazabicyclo[3.1.1]heptan-3-yl)-7-(thiazol-2-yl)benzo[d]oxazol-4-yl)oxy)-4,4-difluoro-2-methylbutan-2-ol]", "values": [
      {"measurement": "IC50", "value": "< 100", "unit": "nM"}
    ]},
    {"smiles": "CC(O)(c1ccc(-c2nccs2)c2oc(N3CC4CC(C3)N4)nc12)C(F)F", "note": "(centres unmarked) [Example 297, 2-(2-(3,6-Diazabicyclo[3.1.1]heptan-3-yl)-7-(thiazol-2-yl)benzo[d]oxazol-4-yl)-1,1-difluoropropan-2-ol]", "values": [
      {"measurement": "IC50", "value": "< 100", "unit": "nM"}
    ]},
    {"smiles": "COC(C)(C)c1cc(-c2cscn2)c2oc(N3CC4CCC(C3)N4)nc2c1OC(F)(F)F", "note": "[Example 298, 2-(3,8-Diazabicyclo[3.2.1]octan-3-yl)-5-(2-methoxypropan-2-yl)-7-(thiazol-4-yl)-4-(trifluoromethoxy)benzo[d]oxazole]", "values": [
      {"measurement": "IC50", "value": "< 100", "unit": "nM"}
    ]},
    {"smiles": "OC1(c2cc(-c3cscn3)c3oc(N4CC5CC(C4)N5)nc3c2OC(F)(F)F)CC1", "note": "[Example 299, 1-(2-(3,6-Diazabicyclo[3.1.1]heptan-3-yl)-7-(thiazol-4-yl)-4-(trifluoromethoxy)benzo[d]oxazol-5-yl)cyclopropan-1-ol]", "values": [
      {"measurement": "IC50", "value": "< 100", "unit": "nM"}
    ]},
    {"smiles": "OC(c1cc(-c2cscn2)c2oc(N3CC4CC(C3)N4)nc2c1OC(F)(F)F)C(F)F", "note": "(centres unmarked) [Example 300, 1-(2-(3,6-Diazabicyclo[3.1.1]heptan-3-yl)-7-(thiazol-4-yl)-4-(trifluoromethoxy)benzo[d]oxazol-5-yl)-2,2-difluoroethan-1-ol]", "values": [
      {"measurement": "IC50", "value": "< 100", "unit": "nM"}
    ]},
    {"smiles": "OC(c1cc(-c2cscn2)c2oc(N3CC4CC(C3)N4)nc2c1OC(F)(F)F)C(F)F", "note": "(centres unmarked) [Example 301, 1-(2-(3,6-Diazabicyclo[3.1.1]heptan-3-yl)-7-(thiazol-4-yl)-4-(trifluoromethoxy)benzo[d]oxazol-5-yl)-2,2-difluoroethan-1-ol]", "values": [
      {"measurement": "IC50", "value": "< 100", "unit": "nM"}
    ]},
    {"smiles": "OC(c1cc(-c2cscn2)c2oc(N3CC4CCC(C3)N4)nc2c1OC(F)(F)F)C(F)F", "note": "(centres unmarked) [Example 302, 1-(2-(3,8-Diazabicyclo[3.2.1]octan-3-yl)-7-(thiazol-4-yl)-4-(trifluoromethoxy)benzo[d]oxazol-5-yl)-2,2-difluoroethan-1-ol]", "values": [
      {"measurement": "IC50", "value": "< 100", "unit": "nM"}
    ]},
    {"smiles": "OC(c1cc(-c2cscn2)c2oc(N3CC4CCC(C3)N4)nc2c1OC(F)(F)F)C(F)F", "note": "(centres unmarked) [Example 303, 1-(2-(3,8-Diazabicyclo[3.2.1]octan-3-yl)-7-(thiazol-4-yl)-4-(trifluoromethoxy)benzo[d]oxazol-5-yl)-2,2-difluoroethan-1-ol]", "values": [
      {"measurement": "IC50", "value": "< 100", "unit": "nM"}
    ]},
    {"smiles": "OC1CCC(Oc2ccc(-c3nccs3)c3oc(N4CC5CC(C4)N5)nc23)CC1", "note": "(centres unmarked) [Example 305, 4-((2-(3,6-Diazabicyclo[3.1.1]heptan-3-yl)-7-(thiazol-2-yl)benzo[d]oxazol-4-yl)oxy)cyclohexan-1-ol]", "values": [
      {"measurement": "IC50", "value": "< 100", "unit": "nM"}
    ]},
    {"smiles": "CC(C)(O)C(F)(F)Oc1ccc(-c2cscn2)c2oc(N3CC4CC(C3)N4)nc12", "note": "[Example 307, 1-((2-(3,6-Diazabicyclo[3.1.1]heptan-3-yl)-7-(thiazol-4-yl)benzo[d]oxazol-4-yl)oxy)-1,1-difluoro-2-methylpropan-2-ol]", "values": [
      {"measurement": "IC50", "value": "< 100", "unit": "nM"}
    ]},
    {"smiles": "CC(C)(O)C(F)(F)Oc1ccc(-c2cscn2)c2oc(N3CC4CCC(C3)N4)nc12", "note": "[Example 308, 1-((2-(3,8-Diazabicyclo[3.2.1]octan-3-yl)-7-(thiazol-4-yl)benzo[d]oxazol-4-yl)oxy)-1,1-difluoro-2-methylpropan-2-ol]", "values": [
      {"measurement": "IC50", "value": "< 100", "unit": "nM"}
    ]}
  ]
}
